Data published in patent publication US8822471B2, “Compounds, pharmaceutical compositions and uses thereof” (Boehringer Ingelheim International GmbH, priority 2011, dated 2014).

target: T1, human GPR119 (Homo sapiens, UniProt Q8TDV5); experiment: AlphaScreen cAMP assay in MIN6 cells stably transfected with human GPR119; type: cell-based; conditions: Min-6/hGPR119 cells, AlphaScreen cAMP Assay Kit, 45 minutes incubation at room temperature
T1 construct: expression vector for human GPR119 cDNA (Acc. No. NP_848566); expressed in transfected cells
T1 sequence (Q8TDV5 1-335): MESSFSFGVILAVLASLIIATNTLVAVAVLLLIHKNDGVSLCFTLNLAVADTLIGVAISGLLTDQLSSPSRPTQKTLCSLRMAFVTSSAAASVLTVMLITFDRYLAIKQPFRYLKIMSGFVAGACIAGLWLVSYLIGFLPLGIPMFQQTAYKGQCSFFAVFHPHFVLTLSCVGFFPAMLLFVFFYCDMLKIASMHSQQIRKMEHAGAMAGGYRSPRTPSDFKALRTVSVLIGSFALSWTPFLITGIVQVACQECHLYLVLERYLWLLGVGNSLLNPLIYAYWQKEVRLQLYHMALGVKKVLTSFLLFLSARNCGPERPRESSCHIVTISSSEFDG
Method: The compounds of formula I according to the invention modulate the activity of the G-protein-coupled receptor GPR119. The effect of the compounds on the activation of GPR119 and on the stimulation of intracellular cAMP concentration is determined using the AlphaScreen cAMP Assay Kit (Cat. No. #6760625R) made by PerkinElmer.
MIN6 cells [Miyazaki J et al. Endocrinology. 1990 July; 127(1):126-32] are stably transfected with an expression vector for human GPR119 cDNA (Acc. No. NP_848566). Min-6/hGPR119 cells are cultured in DMEM, 10% FBS, 50 μM β-mercaptoethanol, 0.3 mg/mL Geniticin, 2 mM GlutaMAX at 37° C. 5% CO2. For the assay, the cells are seeded in Optiplates (white, 384-well, 160 W-barcoded, TC, sterile with lid, Cat. No. #6007688 (Perkin Elmer); 10000 cells/well; 50 μl). The plates covered with lids are then incubated for 24 hours at 37° C./5% CO2. After the medium is aspirated from the wells completely, 10 μl of the test compound are added, the compounds are diluted using stimulating buffer (140 mM NaCl, 3.6 mM KCl, 0.5 mM NaH2PO4, 0.5 mM MgSO4, 1.5 mM CaCl2, 10 mM Hepes, 5 mM NaHCO3; pH 7.4. 0.5 mM IBMX and 0.1% BSA, the final DMSO concentration is 1%). After 45 minutes incubation at room temperature (approx. 20° C.), the cAMP concentrations are determined using the AlphaScreen cAMP Assay Kit (Cat. No. #6760625R from PerkinElmer).

Compound	EC50
O=C(c1ccc(-c2cnco2)cc1)N(C1CC1)C1CCN(c2ccc(Br)cn2)CC1 [Example 32, N-[1-(5-Bromo-pyridin-2-yl)-piperidin-4-yl]-N-cyclopropyl-4-oxazol-5-yl-benzamide]	38 nM
O=C(c1ccc(-c2cnco2)cc1)N(C1CC1)C1CCN(c2ccc(F)cn2)CC1 [Example 33, N-Cyclopropyl-N-[1-(5-fluoro-pyridin-2-yl)-piperidin-4-yl]-4-oxazol-5-yl-benzamide]	276 nM
Cc1ccc(N2CCC(N(C(=O)c3ccc(-c4cnco4)cc3)C3CC3)CC2)nc1 [Example 34, N-Cyclopropyl-N-[1-(5-methyl-pyridin-2-yl)-piperidin-4-yl]-4-oxazol-5-yl-benzamide]	85 nM
O=C(c1ccc(-c2cnco2)cc1)N(C1CC1)C1CCN(c2nc(Cl)ns2)CC1 [Example 35, N-[1-(3-Chloro-[1,2,4]thiadiazol-5-yl)-piperidin-4-yl]-N-cyclopropyl-4-oxazol-5-yl-benzamide]	53 nM
CC(C)Nc1nsc(N2CCC(N(C(=O)c3ccc(-c4cnco4)cc3)C3CC3)CC2)n1 [Example 36, N-Cyclopropyl-N-[1-(3-isopropylamino-[1,2,4]thiadiazol-5-yl)-piperidin-4-yl]-4-oxazol-5-yl-benzamide]	83 nM
CC(C)Oc1nsc(N2CCC(N(C(=O)c3ccc(-c4cnco4)cc3)C3CC3)CC2)n1 [Example 37, N-Cyclopropyl-N-[1-(3-isopropoxy-[1,2,4]thiadiazol-5-yl)-piperidin-4-yl]-4-oxazol-5-yl-benzamide]	55 nM
CCc1noc(N2CCC(N(C(=O)c3ccc(-c4ccc(C(N)=O)cc4)cc3)C3CC3)CC2)n1 [Example 38, Biphenyl-4,4′-dicarboxylic acid 4-amide 4′-{cyclopropyl-[1-(3-ethyl-[1,2,4]oxadiazol-5-yl)-piperidin-4-yl]-amide}]	204 nM
NC(=O)c1ccc(-c2ccc(C(=O)N(C3CC3)C3CCN(c4nc(-c5ccccc5)no4)CC3)cc2)cc1 [Example 39, Biphenyl-4,4′-dicarboxylic acid 4′-amide 4-{cyclopropyl-[1-(3-phenyl-[1,2,4]oxadiazol-5-yl)-Piperidin-4-yl]-amide}]	87 nM
O=C(c1ccc(-c2cnco2)cc1)N(C1CC1)C1CCN(c2nc(-c3ccc(Br)cc3)no2)CC1 [Example 40, N-{1-[3-(4-Bromo-phenyl)-[1,2,4]oxadiazol-5-yl]-piperidin-4-yl}-N-cyclopropyl-4-oxazol-5-yl-benzamide]	11 nM
Cc1ncoc1-c1ccc(C(=O)N(C2CC2)C2CCN(c3nc(-c4ccccc4)no3)CC2)cc1 [Example 41, N-Cyclopropyl-4-(4-methyl-oxazol-5-yl)-N-[1-(3-phenyl-[1,2,4]oxadiazol-5-yl)-piperidin-4-yl]-benzamide]	38 nM
Cc1ncoc1-c1ccc(C(=O)N(C2CC2)C2CCN(c3nc(C(C)C)no3)CC2)cc1 [Example 42, N-Cyclopropyl-N-[1-(3-isopropyl-[1,2,4]oxadiazol-5-yl)-piperidin-4-yl]-4-(4-methyl-oxazol-5-yl)-benzamide]	17 nM
Cc1ncoc1-c1ccc(C(=O)N(C2CC2)C2CCN(c3ncc(Cl)cn3)CC2)cc1 [Example 43, N-[1-(5-Chloro-pyrimidin-2-yl)-piperidin-4-yl]-N-cyclopropyl-4-(4-methyl-oxazol-5-yl)-benzamide]	46 nM
COc1ccc(-c2noc(N3CCC(N(C(=O)c4ccc(-c5cnco5)cc4)C4CC4)CC3)n2)cc1 [Example 44, N-Cyclopropyl-N-{1-[3-(4-methoxy-phenyl)-[1,2,4]oxadiazol-5-yl]-piperidin-4-yl}-4-oxazol-5-yl-benzamide]	31 nM
CCOC(=O)c1noc(N2CCC(N(C(=O)c3ccc(-c4cnco4)cc3)C3CC3)CC2)n1 [Example 45, 5-{4-[Cyclopropyl-(4-oxazol-5-yl-benzoyl)-amino]-piperidin-1-yl}-[1,2,4]oxadiazole-3-carboxylic acid ethyl ester]	259 nM
CC(C)(O)c1noc(N2CCC(N(C(=O)c3ccc(-c4cnco4)cc3)C3CC3)CC2)n1 [Example 46, N-Cyclopropyl-N-{1-[3-(1-hydroxy-1-methyl-ethyl)-[1,2,4]oxadiazol-5-yl]-piperidin-4-yl}-4-oxazol-5-yl-benzamide]	731 nM
O=C(c1ccc(-c2cnco2)cc1)N(C1CC1)C1CCN(c2noc(-c3ccccc3)n2)CC1 [Example 47, N-Cyclopropyl-4-oxazol-5-yl-N-[1-(5-phenyl-[1,2,4]oxadiazol-3-yl)-piperidin-4-yl]-benzamide]	37 nM
CCc1nc(N2CCC(N(C(=O)c3ccc(-c4cnco4)cc3)C3CC3)CC2)no1 [Example 48, N-Cyclopropyl-N-[1-(5-ethyl-[1,2,4]oxadiazol-3-yl)-piperidin-4-yl]-4-oxazol-5-yl-benzamide]	47 nM
CC(C)c1nc(N2CCC(N(C(=O)c3ccc(-c4cnco4)cc3)C3CC3)CC2)no1 [Example 49, N-Cyclopropyl-N-[1-(5-isopropyl-[1,2,4]oxadiazol-3-yl)-piperidin-4-yl]-4-oxazol-5-yl-benzamide]	14 nM
O=C(c1ccc(-c2cnco2)cc1)N(C1CC1)C1CCN(c2noc(-c3cnccn3)n2)CC1 [Example 50, N-Cyclopropyl-4-oxazol-5-yl-N-[1-(5-pyrazin-2-yl-[1,2,4]oxadiazol-3-yl)-piperidin-4-yl]-benzamide]	277 nM
O=C(c1ccc(-c2cnco2)cc1)N(C1CC1)C1CCN(c2noc(C3CC3)n2)CC1 [Example 51, N-Cyclopropyl-N-[1-(5-cyclopropyl-[1,2,4]oxadiazol-3-yl)-piperidin-4-yl]-4-oxazol-5-yl-benzamide]	56 nM
O=C(c1ccc(-c2cnco2)cc1)N(C1CC1)C1CCN(c2noc(C3CCC3)n2)CC1 [Example 52, N-[1-(5-Cyclobutyl-[1,2,4]oxadiazol-3-yl)-piperidin-4-yl]-N-cyclopropyl-4-oxazol-5-yl-benzamide]	17 nM
CCc1cnc(N2CCC(N(C(=O)c3ccc(-c4cnco4)cc3)C3CC3)C(C)C2)nc1 (centres unmarked) [Example 53, N-Cyclopropyl-N-[1-(5-ethyl-pyrimidin-2-yl)-3-methyl-piperidin-4-yl]-4-oxazol-5-yl-benzamide]	99 nM
CC1CN(c2nc(-c3ccccc3)no2)CCC1N(C(=O)c1ccc(-c2cnco2)cc1)C1CC1 (centres unmarked) [Example 54, N-Cyclopropyl-N-[3-methyl-1-(3-phenyl-[1,2,4]oxadiazol-5-yl)-piperidin-4-yl]-4-oxazol-5-yl-benzamide]	43 nM
O=C(c1ccc(-c2cnco2)cc1)N(C1CC1)C1CCN(c2nc(CC3CCOCC3)no2)CC1 [Example 55, N-Cyclopropyl-4-oxazol-5-yl-N-{1-[3-(tetrahydro-pyran-4-ylmethyl)-[1,2,4]oxadiazol-5-yl]-piperidin-4-yl}-benzamide]	1150 nM
O=C(c1ccc(-c2cnco2)cc1)N(C1CC1)C1CCN(c2nc(C3CCOCC3)no2)CC1 [Example 56, N-Cyclopropyl-4-oxazol-5-yl-N-{1-[3-(tetrahydro-pyran-4-yl)-[1,2,4]oxadiazol-5-yl]-piperidin-4-yl}-benzamide]	159 nM
C=CCCc1noc(N2CCC(N(C(=O)c3ccc(-c4cnco4)cc3)C3CC3)CC2)n1 [Example 57, N-[1-(3-But-3-enyl-[1,2,4]oxadiazol-5-yl)-piperidin-4-yl]-N-cyclopropyl-4-oxazol-5-yl-benzamide]	22 nM
